# According to ChEMBL document CHEMBL4715808, “Discovery of (1S,2R,3S,4S,5R,6R)-2-Amino-3-[(3,4-difluorophenyl)sulfanylmethyl]-4-hydroxy-bicyclo[3.1.0]hexane-2,6-dicarboxylic Acid Hydrochloride (LY3020371·HCl): A Potent, Metabotropic Glutamate 2/3 Receptor Antagonist with Antidepressant-Like Activity” (J Med Chem, 2016):
# Columns and labels:
# [1] = Antagonist activity at human recombinant mGlu7 stably expressed in golden hamster AV12 cell membrane co-expressing Galpha15 assessed as reduction in glutamate-induced calcium influx incubated for 90 to 120 min by Fluo-4-AM dye based FLIPR assay; assay type: cell membranes
# [2] = target: T1, Metabotropic glutamate receptor 6 (Homo sapiens, UniProt O15303); experiment: Agonist activity at human recombinant mGlu6 stably expressed in golden hamster AV12 cell membrane co-expressing Galpha15 assessed as assessed as increase in calcium influx incubated for 90 to 120 min by Fluo-4-AM dye based FLIPR assay; assay type: functional, cell membranes
# [3] = Agonist activity at human recombinant mGlu7 stably expressed in golden hamster AV12 cell membrane co-expressing Galpha15 assessed as assessed as increase in calcium influx incubated for 90 to 120 min by Fluo-4-AM dye based FLIPR assay; assay type: cell membranes
# [4] = target: T2, Metabotropic glutamate receptor 3 (Homo sapiens, UniProt Q14832); experiment: Displacement of [3H]-LY459477 from recombinant human mGlu3 receptor expressed in hamster AV12 cell membranes co-expressing rat EAAT1 incubated for 90 mins by top count scintillation method; parameters: species or system Cell membrane
# [5] = target: T2, Metabotropic glutamate receptor 3; experiment: Antagonist activity at human recombinant mGlu3 stably expressed in golden hamster AV12 cell membrane co-expressing Galpha15 assessed as assessed as reduction in glutamate-induced calcium influx incubated for 90 to 120 min by Fluo-4-AM dye based FLIPR assay; assay type: functional, cell membranes
# [6] = target: T3, Metabotropic glutamate receptor 1 (Homo sapiens, UniProt Q13255); experiment: Agonist activity at human recombinant mGlu1 stably expressed in golden hamster AV12 cell membrane co-expressing Gq assessed as assessed as increase in calcium influx incubated for 90 to 120 min by Fluo-4-AM dye based FLIPR assay; assay type: functional, cell membranes
# [7] = target: T3, Metabotropic glutamate receptor 1; experiment: Antagonist activity at human recombinant mGlu1 stably expressed in golden hamster AV12 cell membrane co-expressing Gq assessed as reduction in glutamate-induced calcium influx incubated for 90 to 120 min by Fluo-4-AM dye based FLIPR assay; assay type: functional, cell membranes
# [8] = target: T4, Metabotropic glutamate receptor 4 (Homo sapiens, UniProt Q14833); experiment: Agonist activity at human recombinant mGlu4 stably expressed in golden hamster AV12 cell membrane co-expressing Galpha15 assessed as assessed as increase in calcium influx incubated for 90 to 120 min by Fluo-4-AM dye based FLIPR assay; assay type: functional, cell membranes
# [9] = target: T4, Metabotropic glutamate receptor 4; experiment: Antagonist activity human recombinant mGlu4 stably expressed in golden hamster AV12 cell membrane co-expressing Galpha15 assessed as reduction in glutamate-induced calcium influx incubated for 90 to 120 min by Fluo-4-AM dye based FLIPR assay; assay type: functional, cell membranes
# [10] = target: T1, Metabotropic glutamate receptor 6; experiment: Antagonist activity at human recombinant mGlu6 stably expressed in golden hamster AV12 cell membrane co-expressing Galpha15 assessed as reduction in glutamate-induced calcium influx incubated for 90 to 120 min by Fluo-4-AM dye based FLIPR assay; assay type: functional, cell membranes
# [11] = target: T5, Metabotropic glutamate receptor 5 (Homo sapiens, UniProt P41594); experiment: Agonist activity at human recombinant mGlu5 stably expressed in golden hamster AV12 cell membrane co-expressing Gq assessed as assessed as increase in calcium influx incubated for 90 to 120 min by Fluo-4-AM dye based FLIPR assay; assay type: functional, cell membranes
# [12] = target: T5, Metabotropic glutamate receptor 5; experiment: Antagonist activity at human recombinant mGlu5 stably expressed in golden hamster AV12 cell membrane co-expressing Gq assessed as reduction in glutamate-induced calcium influx incubated for 90 to 120 min by Fluo-4-AM dye based FLIPR assay; assay type: functional, cell membranes
# [13] = Aqueous solubility of compound at pH 7.4; assay type: physicochemical; settings: aqueous medium
# [14] = Metabolic stability of compound in mouse hepatocytes assessed as parent compound loss at 2 uM; assay type: ADME, cell-based, Hepatocyte; settings: read-out: Drug degradation
# [15] = Metabolic stability of compound in rat hepatocytes assessed as parent compound loss at 2 uM; assay type: ADME, cell-based, Hepatocyte; settings: read-out: Drug degradation
# [16] = Metabolic stability of compound in dog hepatocytes assessed as parent compound loss at 2 uM; assay type: ADME, cell-based, Canis lupus familiaris, Hepatocyte; settings: read-out: Drug degradation
# [17] = Metabolic stability of compound in human hepatocytes assessed as parent compound loss at 2 uM; assay type: ADME, cell-based, Hepatocyte; settings: read-out: Drug degradation
# CYP3A4 = CYP3A4 (Homo sapiens, UniProt P08684); experiment: Inhibition of human CYP3A4 at 10 uM relative to control; assay type: ADME
# CYP2D6 = CYP2D6 (Homo sapiens, UniProt P10635); experiment: Inhibition of human CYP2D6 at 10 uM relative to control; assay type: ADME
# CYP2C9 = CYP2C9 (Homo sapiens, UniProt P11712); experiment: Inhibition of human CYP2C9 at 10 uM relative to control; assay type: ADME
# [18] = Protein binding in rat plasma assessed as unbound fraction; assay type: ADME, cell-free
# [19] = Protein binding in human plasma assessed as unbound fraction; assay type: ADME, cell-free
# [20] = AUC (0 to 24 hrs) in CD1 mouse plasma in fasting state at 1.1 mg/kg, ip administered as single dose measured after 24 hrs by LC-MS/MS analysis; assay type: ADME, organism-based; parameters: route intraperitoneal, dose 1.1 mg/kg, time 24 hrs
# [21] = AUC (0 to 24 hrs) in CD1 mouse plasma in fasting state at 3.3 mg/kg, ip administered as single dose measured after 24 hrs by LC-MS/MS analysis; assay type: ADME, organism-based; parameters: route intraperitoneal, time 24 hrs, dose 3.3 mg/kg
# [22] = AUC (0 to 24 hrs) in CD1 mouse plasma in fasting state at 11 mg/kg, ip administered as single dose measured after 24 hrs by LC-MS/MS analysis; assay type: ADME, organism-based; parameters: route intraperitoneal, dose 11 mg/kg, time 24 hrs
# [23] = Cmax in CD1 mouse plasma in fasting state at 1.1 mg/kg, ip administered as single dose measured after 24 hrs by LC-MS/MS analysis; assay type: ADME, organism-based; parameters: route intraperitoneal, dose 1.1 mg/kg, time 24 hrs
# [24] = Cmax in CD1 mouse plasma in fasting state at 3.3 mg/kg, ip administered as single dose measured after 24 hrs by LC-MS/MS analysis; assay type: ADME, organism-based; parameters: route intraperitoneal, dose 3.3 mg/kg, time 24 hrs
# [25] = Cmax in CD1 mouse plasma in fasting state at 11 mg/kg, ip administered as single dose measured after 24 hrs by LC-MS/MS analysis; assay type: ADME, organism-based; parameters: route intraperitoneal, dose 11 mg/kg, time 24 hrs
# [26] = Tmax in CD1 mouse plasma in fasting state at 1.1 mg/kg, ip administered as single dose measured after 24 hrs by LC-MS/MS analysis; assay type: ADME, organism-based
# [27] = Tmax in CD1 mouse plasma in fasting state at 3.3 mg/kg, ip administered as single dose measured after 24 hrs by LC-MS/MS analysis; assay type: ADME, organism-based
# [28] = Tmax in CD1 mouse plasma in fasting state at 11 mg/kg, ip administered as single dose measured after 24 hrs by LC-MS/MS analysis; assay type: ADME, organism-based
# [29] = Half life in CD1 mouse plasma in fasting state at 1.1 mg/kg, ip administered as single dose measured after 24 hrs by LC-MS/MS analysis; assay type: ADME, organism-based
# [30] = Half life in CD1 mouse plasma in fasting state at 3.3 mg/kg, ip administered as single dose measured after 24 hrs by LC-MS/MS analysis; assay type: ADME, organism-based
# [31] = Half life in CD1 mouse plasma in fasting state at 11 mg/kg, ip administered as single dose measured after 24 hrs by LC-MS/MS analysis; assay type: ADME, organism-based
# [32] = Dose normalized AUC in CD1 mouse plasma in fasting state at 1.1 mg/kg, ip administered as single dose measured after 24 hrs by LC-MS/MS analysis; assay type: ADME, organism-based; settings: in vivo
# [33] = Dose normalized AUC in CD1 mouse plasma in fasting state at 3.3 mg/kg, ip administered as single dose measured after 24 hrs by LC-MS/MS analysis; assay type: ADME, organism-based; settings: in vivo
# [34] = Dose normalized AUC in CD1 mouse plasma in fasting state at 11 mg/kg, ip administered as single dose measured after 24 hrs by LC-MS/MS analysis; assay type: ADME, organism-based; settings: in vivo
# [35] = Clearance in male Sprague-Dawley rat at 0.3 to 10 mg/kg, iv; assay type: ADME, organism-based; settings: in vivo, dose 0.3-10 mg/kg
# [36] = Unbound brain concentration in CD1 mouse at 1 mg/kg, ip administered as single dose by LC-MS/MS analysis; assay type: ADME, organism-based; settings: in vivo
# [37] = Unbound brain concentration in CD1 mouse at 3 mg/kg, ip administered as single dose by LC-MS/MS analysis; assay type: ADME, organism-based; settings: in vivo
# [38] = Unbound brain concentration in CD1 mouse at 10 mg/kg, ip administered as single dose by LC-MS/MS analysis; assay type: ADME, organism-based; settings: in vivo
# [39] = Unbound plasma concentration in CD1 mouse at 1 mg/kg, ip administered as single dose by LC-MS/MS analysis; assay type: ADME, organism-based; settings: in vivo
# [40] = Unbound plasma concentration in CD1 mouse at 3 mg/kg, ip administered as single dose by LC-MS/MS analysis; assay type: ADME, organism-based; settings: in vivo
# [41] = Unbound plasma concentration in CD1 mouse at 10 mg/kg, ip administered as single dose by LC-MS/MS analysis; assay type: ADME, organism-based; settings: in vivo
# Mus musculus [42] = experiment: Antidepressant activity in male Swiss mouse assessed as reduction in immobility time at 1 to 10 mg/kg, ip measured for last 4 mins of 6 mins test by forced swim test relative to control; assay type: functional; settings: dose 1-10 mg/kg, 0.1 h
# Mus musculus [43] = experiment: Antidepressant activity in ip dosed male Swiss mouse assessed as reduction in immobility time measured for last 4 mins of 6 mins test by forced swim test; assay type: functional; settings: 0.1 h
# T4 sequence (Q14833 whole entry): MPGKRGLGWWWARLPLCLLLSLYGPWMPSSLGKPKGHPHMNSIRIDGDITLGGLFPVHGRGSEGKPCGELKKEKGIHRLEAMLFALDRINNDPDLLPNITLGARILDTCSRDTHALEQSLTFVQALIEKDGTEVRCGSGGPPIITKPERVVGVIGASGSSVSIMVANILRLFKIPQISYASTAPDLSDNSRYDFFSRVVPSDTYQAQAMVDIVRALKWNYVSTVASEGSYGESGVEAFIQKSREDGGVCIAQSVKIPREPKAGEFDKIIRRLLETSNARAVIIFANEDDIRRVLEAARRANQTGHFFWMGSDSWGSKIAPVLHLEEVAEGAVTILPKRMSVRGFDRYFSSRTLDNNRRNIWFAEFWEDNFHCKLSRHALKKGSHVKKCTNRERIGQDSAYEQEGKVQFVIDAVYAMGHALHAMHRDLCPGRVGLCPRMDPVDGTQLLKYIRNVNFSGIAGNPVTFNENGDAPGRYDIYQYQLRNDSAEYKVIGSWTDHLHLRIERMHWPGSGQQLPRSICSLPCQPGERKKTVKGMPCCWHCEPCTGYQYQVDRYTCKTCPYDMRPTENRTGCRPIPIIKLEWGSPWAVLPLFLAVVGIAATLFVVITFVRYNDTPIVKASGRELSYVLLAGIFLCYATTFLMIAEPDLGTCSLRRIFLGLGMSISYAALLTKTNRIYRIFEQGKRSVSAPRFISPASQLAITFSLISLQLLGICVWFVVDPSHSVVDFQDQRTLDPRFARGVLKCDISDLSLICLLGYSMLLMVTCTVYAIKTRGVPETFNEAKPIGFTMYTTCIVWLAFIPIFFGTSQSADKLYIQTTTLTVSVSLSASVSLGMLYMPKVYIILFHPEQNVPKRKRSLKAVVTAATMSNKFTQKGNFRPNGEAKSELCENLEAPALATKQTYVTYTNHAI
# T2 sequence (Q14832 whole entry): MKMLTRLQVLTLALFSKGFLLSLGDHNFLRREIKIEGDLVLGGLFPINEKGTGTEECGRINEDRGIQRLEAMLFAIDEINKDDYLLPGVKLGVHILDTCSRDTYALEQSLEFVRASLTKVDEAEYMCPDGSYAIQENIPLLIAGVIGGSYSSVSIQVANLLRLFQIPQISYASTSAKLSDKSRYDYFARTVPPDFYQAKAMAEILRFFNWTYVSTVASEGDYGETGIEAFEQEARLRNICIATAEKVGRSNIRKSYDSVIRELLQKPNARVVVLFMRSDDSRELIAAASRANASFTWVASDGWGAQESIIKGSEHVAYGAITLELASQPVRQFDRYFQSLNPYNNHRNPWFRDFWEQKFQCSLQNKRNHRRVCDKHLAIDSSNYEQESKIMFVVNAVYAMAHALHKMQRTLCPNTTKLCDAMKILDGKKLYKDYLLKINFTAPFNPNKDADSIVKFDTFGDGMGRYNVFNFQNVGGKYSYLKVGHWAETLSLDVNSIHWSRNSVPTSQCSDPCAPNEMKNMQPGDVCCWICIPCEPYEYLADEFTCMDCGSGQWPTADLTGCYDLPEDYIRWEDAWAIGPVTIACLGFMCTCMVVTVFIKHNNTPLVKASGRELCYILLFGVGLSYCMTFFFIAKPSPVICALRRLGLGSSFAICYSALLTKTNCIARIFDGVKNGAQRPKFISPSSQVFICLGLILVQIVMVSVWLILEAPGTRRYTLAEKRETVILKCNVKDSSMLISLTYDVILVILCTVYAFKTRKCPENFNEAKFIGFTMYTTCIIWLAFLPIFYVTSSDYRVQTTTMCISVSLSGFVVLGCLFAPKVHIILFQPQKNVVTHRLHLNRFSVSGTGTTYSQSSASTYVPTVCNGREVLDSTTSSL
# T1 sequence (O15303 whole entry): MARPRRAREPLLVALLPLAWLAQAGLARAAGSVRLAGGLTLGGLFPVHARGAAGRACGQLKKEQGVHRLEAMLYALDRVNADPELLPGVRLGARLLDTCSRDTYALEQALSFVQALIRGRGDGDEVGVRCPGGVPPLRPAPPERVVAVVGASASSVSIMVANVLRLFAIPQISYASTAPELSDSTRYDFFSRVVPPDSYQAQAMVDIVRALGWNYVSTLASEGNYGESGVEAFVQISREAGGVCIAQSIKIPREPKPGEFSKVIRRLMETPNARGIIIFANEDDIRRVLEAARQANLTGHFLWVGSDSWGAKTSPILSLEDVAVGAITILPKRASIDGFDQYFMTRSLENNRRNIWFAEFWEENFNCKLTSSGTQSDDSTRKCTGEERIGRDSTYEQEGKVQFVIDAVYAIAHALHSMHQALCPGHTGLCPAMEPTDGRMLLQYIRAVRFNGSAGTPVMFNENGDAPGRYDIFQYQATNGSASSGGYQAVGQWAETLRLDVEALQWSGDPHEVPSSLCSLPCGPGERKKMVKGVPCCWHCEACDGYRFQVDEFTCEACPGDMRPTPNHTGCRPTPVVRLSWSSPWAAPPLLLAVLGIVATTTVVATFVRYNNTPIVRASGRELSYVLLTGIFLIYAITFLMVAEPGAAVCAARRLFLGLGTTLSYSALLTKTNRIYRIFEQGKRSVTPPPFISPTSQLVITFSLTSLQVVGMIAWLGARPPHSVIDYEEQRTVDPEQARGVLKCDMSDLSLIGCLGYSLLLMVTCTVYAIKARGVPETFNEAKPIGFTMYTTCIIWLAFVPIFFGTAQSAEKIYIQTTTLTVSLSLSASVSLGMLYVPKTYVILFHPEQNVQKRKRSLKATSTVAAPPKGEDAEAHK
# T5 sequence (P41594 whole entry): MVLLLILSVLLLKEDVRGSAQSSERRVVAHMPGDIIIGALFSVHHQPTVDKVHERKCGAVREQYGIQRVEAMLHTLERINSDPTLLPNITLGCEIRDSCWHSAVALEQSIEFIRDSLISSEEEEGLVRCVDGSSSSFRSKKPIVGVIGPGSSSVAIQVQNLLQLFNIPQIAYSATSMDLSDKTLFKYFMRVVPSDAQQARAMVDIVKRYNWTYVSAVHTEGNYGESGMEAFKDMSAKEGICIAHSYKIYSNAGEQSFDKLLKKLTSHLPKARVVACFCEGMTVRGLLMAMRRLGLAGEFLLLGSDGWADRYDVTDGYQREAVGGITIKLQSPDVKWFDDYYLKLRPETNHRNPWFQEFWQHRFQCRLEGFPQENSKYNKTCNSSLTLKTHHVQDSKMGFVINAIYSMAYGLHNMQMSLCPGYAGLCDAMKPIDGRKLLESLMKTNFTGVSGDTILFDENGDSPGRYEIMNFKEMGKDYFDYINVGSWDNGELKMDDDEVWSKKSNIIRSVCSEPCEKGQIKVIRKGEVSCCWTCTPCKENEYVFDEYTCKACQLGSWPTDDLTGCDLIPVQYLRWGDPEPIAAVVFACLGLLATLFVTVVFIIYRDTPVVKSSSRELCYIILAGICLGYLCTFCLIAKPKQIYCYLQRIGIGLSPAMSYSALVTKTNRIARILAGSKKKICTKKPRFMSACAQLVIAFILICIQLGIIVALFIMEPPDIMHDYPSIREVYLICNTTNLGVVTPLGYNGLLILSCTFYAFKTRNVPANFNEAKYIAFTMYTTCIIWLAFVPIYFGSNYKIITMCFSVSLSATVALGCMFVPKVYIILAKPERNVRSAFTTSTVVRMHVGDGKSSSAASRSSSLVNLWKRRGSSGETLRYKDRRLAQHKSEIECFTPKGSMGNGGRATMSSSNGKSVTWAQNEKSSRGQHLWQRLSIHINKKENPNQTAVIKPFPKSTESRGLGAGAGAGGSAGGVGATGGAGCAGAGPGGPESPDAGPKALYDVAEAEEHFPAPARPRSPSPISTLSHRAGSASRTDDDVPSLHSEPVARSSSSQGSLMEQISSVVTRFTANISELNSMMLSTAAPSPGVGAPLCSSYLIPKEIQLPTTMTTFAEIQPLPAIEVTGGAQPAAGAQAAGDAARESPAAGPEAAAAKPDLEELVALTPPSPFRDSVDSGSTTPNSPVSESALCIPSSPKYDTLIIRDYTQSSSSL
# T3 sequence (Q13255 whole entry): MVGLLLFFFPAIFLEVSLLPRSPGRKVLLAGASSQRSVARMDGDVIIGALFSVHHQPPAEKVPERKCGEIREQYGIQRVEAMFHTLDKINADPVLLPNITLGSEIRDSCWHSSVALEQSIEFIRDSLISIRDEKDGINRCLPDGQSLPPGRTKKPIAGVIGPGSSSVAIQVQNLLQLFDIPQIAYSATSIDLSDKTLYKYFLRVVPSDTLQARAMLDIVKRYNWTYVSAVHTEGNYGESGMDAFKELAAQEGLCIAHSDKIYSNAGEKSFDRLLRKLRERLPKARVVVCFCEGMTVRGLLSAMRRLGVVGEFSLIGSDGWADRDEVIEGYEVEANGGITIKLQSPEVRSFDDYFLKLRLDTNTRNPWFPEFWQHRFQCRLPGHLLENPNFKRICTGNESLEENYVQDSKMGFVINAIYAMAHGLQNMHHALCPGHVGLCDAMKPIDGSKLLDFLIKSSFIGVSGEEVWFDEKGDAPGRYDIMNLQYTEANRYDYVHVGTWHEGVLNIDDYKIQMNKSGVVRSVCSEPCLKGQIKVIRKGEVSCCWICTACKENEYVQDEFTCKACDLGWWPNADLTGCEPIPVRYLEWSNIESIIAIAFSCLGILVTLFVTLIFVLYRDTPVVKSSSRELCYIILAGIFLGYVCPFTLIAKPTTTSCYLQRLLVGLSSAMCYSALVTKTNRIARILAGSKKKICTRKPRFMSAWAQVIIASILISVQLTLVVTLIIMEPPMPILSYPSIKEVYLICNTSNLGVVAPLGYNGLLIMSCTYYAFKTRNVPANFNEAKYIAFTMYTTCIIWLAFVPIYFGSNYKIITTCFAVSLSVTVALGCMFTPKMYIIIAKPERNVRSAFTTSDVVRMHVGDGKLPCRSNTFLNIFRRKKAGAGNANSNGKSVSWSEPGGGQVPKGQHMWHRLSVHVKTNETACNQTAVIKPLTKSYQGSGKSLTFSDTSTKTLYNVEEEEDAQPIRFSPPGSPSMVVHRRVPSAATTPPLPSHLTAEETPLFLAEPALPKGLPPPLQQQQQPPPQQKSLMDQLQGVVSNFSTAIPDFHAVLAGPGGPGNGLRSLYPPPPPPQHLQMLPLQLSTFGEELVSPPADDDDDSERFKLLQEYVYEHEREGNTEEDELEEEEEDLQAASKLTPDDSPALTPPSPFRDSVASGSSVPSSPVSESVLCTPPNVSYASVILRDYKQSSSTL
compound,measurement,setting,value
Cl.N[C@]1(C(=O)O)[C@@H]2[C@@H](C(=O)O)[C@@H]2[C@H](O)[C@H]1CSc1ccc(F)c(F)c1,IC50,[1],1.26 µM
same,EC50,[2],> 25 µM
same,EC50,[3],> 16.7 µM
same,Ki,[4],0.0025 µM
same,IC50,[5],0.0025 µM
same,EC50,[6],> 25 µM
same,IC50,[7],> 12.5 µM
same,EC50,[8],> 25 µM
same,IC50,[9],> 12.5 µM
same,IC50,[10],4.01 µM
same,EC50,[11],> 25 µM
same,IC50,[12],> 12.5 µM
same,solubility,[13],> 100 µM
same,metabolised at 2 µM,[14],< 15%
same,metabolised at 2 µM,[15],< 15%
same,metabolised at 2 µM,[16],< 15%
same,metabolised at 2 µM,[17],< 15%
same,inhibition at 10 µM,CYP3A4,< 10%
same,inhibition at 10 µM,CYP2D6,< 10%
same,inhibition at 10 µM,CYP2C9,< 10%
same,fraction unbound,[18],> 0.6
same,fraction unbound,[19],> 0.6
same,AUC(0-t) at 24 h,[20],5.03 µM·h
same,AUC(0-t) at 24 h,[21],15.2 µM·h
same,AUC(0-t) at 24 h,[22],45.5 µM·h
same,Cmax,[23],4.17 µM
same,Cmax,[24],20.6 µM
same,Cmax,[25],38.4 µM
same,Tmax,[26],15 min
same,Tmax,[27],15 min
same,Tmax,[28],15 min
same,half-life,[29],42 min
same,half-life,[30],30 min
same,half-life,[31],64.2 min
same,AUC/dose,[32],4571 nM·h/mg/kg
same,AUC/dose,[33],4601 nM·h/mg/kg
same,AUC/dose,[34],4134 nM·h/mg/kg
same,clearance,[35],5.83 mL/min/kg
same,Drug uptake(free),[36],8.1 nM
same,Drug uptake(free),[37],47.3 nM
same,Drug uptake(free),[38],151.9 nM
same,Cp(f),[39],0.84 µM
same,Cp(f),[40],3.956 µM
same,Cp(f),[41],7.731 µM
same,%max,Mus musculus [42],67.4%
same,ED60,Mus musculus [43],4.9 mg/kg
